Each structure is given as a SMILES string.

Cruzipain (Trypanosoma cruzi), sequence (P25779 123-467 limits assumed): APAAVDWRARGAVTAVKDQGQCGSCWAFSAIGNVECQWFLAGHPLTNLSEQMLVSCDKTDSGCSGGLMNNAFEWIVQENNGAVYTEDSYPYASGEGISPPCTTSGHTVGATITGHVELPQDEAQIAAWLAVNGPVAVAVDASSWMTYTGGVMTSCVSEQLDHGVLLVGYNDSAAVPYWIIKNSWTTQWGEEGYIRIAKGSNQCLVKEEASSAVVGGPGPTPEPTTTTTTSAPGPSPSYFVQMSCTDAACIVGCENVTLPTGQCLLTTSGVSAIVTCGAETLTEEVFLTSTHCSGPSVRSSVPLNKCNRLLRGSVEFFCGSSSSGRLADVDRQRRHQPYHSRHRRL

The assay has as its target Cruzipain (Trypanosoma cruzi) (UniProt P25779). In words: Second order rate constant for inhibition of cruzain.
Take `O=C(N[C@@H](Cc1ccccc1)C(=O)N[C@@H](CCc1ccccc1)C(=O)[C@@H]1CO1)OCc1ccccc1`: the K inact/Ki is 330000 M⁻¹ s⁻¹.

For the molecule `C[C@H](NC(=O)[C@H](Cc1ccccc1)NC(=O)OCc1ccccc1)C(=O)[C@@H]1CO1`, the K inact/Ki stood at 128000 M⁻¹ s⁻¹.

As for `CC(C)CCNC(=O)[C@H](CC(C)C)NC(=O)[C@H]1OC1C(=O)O` (single isomer, unassigned), the K inact/Ki worked out at 70600 M⁻¹ s⁻¹.

The values above are taken from ChEMBL document CHEMBL1130613, “Design and synthesis of dipeptidyl alpha',beta'-epoxy ketones, potent irreversible inhibitors of the cysteine protease cruzain” (Bioorg Med Chem Lett, 1998).
